The values below come from patent publication US12421211B2, “Heterocyclic compounds” (Hoffmann-La Roche Inc., priority 2021, dated 2025).

Structures can show the parent of a compound that is named as a salt.

One may read the IC90 as the concentration needed for an effect of 90%.

The test system of one assay is Acinetobacter baumannii ATCC17961. Nature of the assay: Antimicrobial susceptibility testing: 90% growth inhibitory concentration (IC90) determination. The settings on record: Acinetobacter baumannii, ATCC17961, 16 h, 90% growth inhibitory concentration, Acinetobacter baumannii ATCC17961, Iso-Sensitest broth, OD 600 nm over 16 h; read-out: ATCC 17961 IC90. The format is cell-based. The gist of the method:
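Growth inhibition derived in log phase from OD600 kinetics (every 20 minutes, 16h, 35±2° C) of ATCC17961 in Iso-Sensitest medium, inoculum ~5×10^5 CFU/ml. Compounds tested as twofold series, 10 points (e.g. 50 to 0.097 μM final); IC90 and IC50 reported.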
For `Cc1nn(CCNS(=O)(=O)c2ccc(F)cc2)cc1-c1ccc(-c2cnc(C(=O)Nc3ccc(C(=O)N4CCN(C(=O)C5CC[N+](C)(C)CC5)CC4)c(Cl)c3)n2C)c(F)c1F` [Example H3, N-[3-chloro-4-[4-(1,1-dimethylpiperidin-1-ium-4-carbonyl)piperazine-1-carbonyl]phenyl]-5-[2,3-difluoro-4-[1-[2-[(4-fluorophenyl)sulfonylamino]ethyl]-3-methyl-pyrazol-4-yl]phenyl]-1-methyl-imidazole-2-carboxamide; formate], the IC90 was determined as 0.18 µM.
Still for that read-out and setting: in the case of `Cn1cc(-c2ccc(-c3cnc(C(=O)Nc4ccc(C(=O)N5CCN(C(=O)C6CCNCC6)CC5)c(Cl)c4)n3C)c(F)c2F)cn1` [Example E20, N-[3-chloro-4-[4-(piperidine-4-carbonyl)piperazine-1-carbonyl]phenyl]-5-[2,3-difluoro-4-(1-methyl-pyrazol-4-yl)phenyl]-1-methyl-imidazole-2-carboxamide] it was 0.53 µM; in that of `Cc1c(-c2ccc(-c3cnc(C(=O)Nc4ccc(C(=O)N5CCN(C(=O)[C@@H]6C[C@@H](O)C[N+]6(C)C)CC5)c(Cl)c4)n3C)c(F)c2F)cnn1CCOC(F)F` [Example F10, N-[3-chloro-4-[4-[(2S,4R)-4-hydroxy-1,1-dimethyl-pyrrolidin-1-ium-2-carbonyl]piperazine-1-carbonyl]phenyl]-5-[4-[1-[2-(difluoro-methoxy)ethyl]-5-methyl-pyrazol-4-yl]-2,3-difluoro-phenyl]-1-methyl-imidazole-2-carboxamide; formate], 0.075 µM; in that of `COCCn1cc(-c2ccc(-c3cnc(C(=O)Nc4ccc(C(=O)N5CCN(C(=O)[C@@H]6C[C@@H](O)C[N+]6(C)C)CC5)c(Cl)c4)n3C)c(F)c2F)c(C)n1` [Example D7, N-[3-chloro-4-[4-[(2S,4R)-4-hydroxy-1,1-dimethyl-pyrrolidin-1-ium-2-carbonyl]piperazine-1-carbonyl]phenyl]-5-[2,3-difluoro-4-[1-(2-methoxyethyl)-3-methyl-pyrazol-4-yl]phenyl]-1-methyl-imidazole-2-carboxamide; formate], 0.15 µM.
Still for that read-out and setting: with `COCCn1ncc(-c2ccc(-c3cnc(C(=O)Nc4ccc(C(=O)N5CCN(C(=O)CN(C)C)CC5)c(Cl)c4)n3C)c(F)c2F)c1C` [Example D32, N-[3-chloro-4-[4-[2-(dimethylamino)acetyl]piperazine-1-carbonyl]phenyl]-5-[2,3-difluoro-4-[1-(2-methoxyethyl)-5-methyl-pyrazol-4-yl]phenyl]-1-methyl-imidazole-2-carboxamide; 2,2,2-trifluoroacetic acid] the figure was 0.052 µM.

The same assay, now with this note: Acinetobacter baumannii, ATCC17961, 16 h, read-out: ATCC 17961 IC90.
Consider `COCCn1ncc(-c2ccc(-c3cnc(C(=O)Nc4ccc(C(=O)N5CCN(C(=O)C6CC[N+](C)(CCO)CC6)CC5)c(Cl)c4)n3C)c(F)c2F)c1C` (stereo not shown) [Example B12, N-[3-chloro-4-[4-[1-(2-hydroxyethyl)-1-methyl-piperidin-1-ium-4-carbonyl]piperazine-1-carbonyl]phenyl]-5-[2,3-difluoro-4-[1-(2-methoxyethyl)-5-methyl-pyrazol-4-yl]phenyl]-1-methyl-imidazole-2-carboxamide; formate], for which the IC90 stood at 0.11 µM.
The same measure, in the same setting: with `COc1ccc(NC(=O)Cn2cc(-c3ccc(-c4cnc(C(=O)Nc5ccc(C(=O)N6CCN(C(=O)C7CC[N+](C)(C)CC7)CC6)c(Cl)c5)n4C)c(F)c3F)c(C)n2)nn1` [Example L4, N-[3-chloro-4-[4-(1,1-dimethylpiperidin-1-ium-4-carbonyl)piperazine-1-carbonyl]phenyl]-5-[2,3-difluoro-4-[1-[2-[(6-methoxypyridazin-3-yl)amino]-2-oxo-ethyl]-3-methyl-pyrazol-4-yl]phenyl]-1-methyl-imidazole-2-carboxamide; formate] the figure was 0.106 µM.
